Results published in patent US12077503B2, “Substituted cyclic amides and their use as herbicides” (FMC CORPORATION, priority 2015, dated 2024).

How the values were obtained:
Type in all cases: in vivo
[1] = test system: pigweed (Amaranthus retroflexus); assay: Test A preemergence; settings: Amaranthus retroflexus, pre-emergence, 240 h, 0 to 100 scale (0 no effect, 100 complete control), read-out: Plant response rating, Pigweed; for pest or weed control at 500 g/ha: 500 g ai/ha, preemergence; for pest or weed control at 125 g/ha: Preemergence, 125 g ai/ha
corn (Zea mays) [2] = assay: Test A preemergence; settings: Zea mays, pre-emergence, 240 h, 0 to 100 scale (0 no effect, 100 complete control); for Corn plant response rating (crop injury, 0 = no effect, 100 = complete kill) at 500 g/ha: 500 g ai/ha, preemergence; for Corn plant response rating (crop injury, 0 = no effect, 100 = complete kill) at 125 g/ha: Preemergence, 125 g ai/ha
In short: (§1)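 Visual injury, scored on a 0–100 scale relative to untreated controls, was recorded about 10 d after application. Treatments were a preemergence soil spray over planted seeds or a postemergence spray on plants at the one- to two-leaf stage, 2 to 10 cm tall, all in loam soil–sand blend in the greenhouse.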

[3] = test system: wheat (Triticum aestivum); assay: Test A preemergence; settings: Triticum aestivum, pre-emergence, 240 h, 0 to 100 scale (0 no effect, 100 complete control), read-out: Plant response rating, Wheat; for plant injury at 500 g/ha: 500 g ai/ha, preemergence; for plant injury at 125 g/ha: Preemergence, 125 g ai/ha
In short: as §1

[4] = test system: crabgrass, large (Digitaria sanguinalis); assay: Test A preemergence; settings: Digitaria sanguinalis, pre-emergence, 240 h, 0 to 100 scale (0 no effect, 100 complete control), read-out: Plant response rating, Crabgrass, Large; for pest or weed control at 500 g/ha: 500 g ai/ha, preemergence; for pest or weed control at 125 g/ha: Preemergence, 125 g ai/ha
In short: as §1

[5] = test system: barnyardgrass (Echinochloa crus-galli); assay: Test A preemergence; settings: Echinochloa crus-galli, pre-emergence, 240 h, 0 to 100 scale (0 no effect, 100 complete control), read-out: Plant response rating, Barnyardgrass; for pest or weed control at 500 g/ha: 500 g ai/ha, preemergence; for pest or weed control at 125 g/ha: Preemergence, 125 g ai/ha
In short: as §1

[6] = test system: giant foxtail (Setaria faberii); assay: Test A preemergence; settings: Setaria faberi, pre-emergence, 240 h, 0 to 100 scale (0 no effect, 100 complete control), read-out: Plant response rating, Foxtail, Giant; for pest or weed control at 500 g/ha: 500 g ai/ha, preemergence; for pest or weed control at 125 g/ha: Preemergence, 125 g ai/ha
In short: as §1

[7] = test system: velvetleaf (Abutilon theophrasti); assay: Test A preemergence; settings: Abutilon theophrasti, pre-emergence, 240 h, 0 to 100 scale (0 no effect, 100 complete control), read-out: Plant response rating, Velvetleaf; for pest or weed control at 500 g/ha: 500 g ai/ha, preemergence; for pest or weed control at 125 g/ha: Preemergence, 125 g ai/ha
In short: as §1

[8] = test system: morningglory (Ipomoea spp.); assay: Test A preemergence; settings: Ipomoea, pre-emergence, 240 h, 0 to 100 scale (0 no effect, 100 complete control), read-out: Plant response rating, Morningglory; for pest or weed control at 500 g/ha: 500 g ai/ha, preemergence; for pest or weed control at 125 g/ha: Preemergence, 125 g ai/ha
In short: as §1

[9] = test system: pigweed (Amaranthus retroflexus); assay: Test A postemergence; settings: Amaranthus retroflexus, post-emergence, 240 h, Postemergence; for pest or weed control at 125 g/ha: 125 g ai/ha, visual rating about 10 d after treatment, read-out: Pigweed plant response rating (0 to 100 scale); for pest or weed control at 500 g/ha: 500 g ai/ha, visual injury, 0 to 100 scale (0 no effect, 100 complete control), approx. 10 d, read-out: Plant response rating, Pigweed
In short: as §1

corn (Zea mays) [10] = assay: Test A postemergence; settings: Zea mays, post-emergence, 240 h, Postemergence; for plant injury at 125 g/ha: 125 g ai/ha, visual rating about 10 d after treatment, read-out: Corn plant response rating (0 to 100 scale); for Corn plant response rating (crop injury, 0 = no effect, 100 = complete kill) at 500 g/ha: 500 g ai/ha, visual injury, 0 to 100 scale (0 no effect, 100 complete control), approx. 10 d
In short: as §1

[11] = test system: wheat (Triticum aestivum); assay: Test A postemergence; settings: Triticum aestivum, post-emergence, 240 h, Postemergence; for plant injury at 125 g/ha: 125 g ai/ha, visual rating about 10 d after treatment, read-out: Wheat plant response rating (0 to 100 scale); for plant injury at 500 g/ha: 500 g ai/ha, visual injury, 0 to 100 scale (0 no effect, 100 complete control), approx. 10 d, read-out: Plant response rating, Wheat
In short: as §1

[12] = test system: crabgrass, large (Digitaria sanguinalis); assay: Test A postemergence; settings: Digitaria sanguinalis, post-emergence, 240 h, Postemergence; for pest or weed control at 125 g/ha: 125 g ai/ha, visual rating about 10 d after treatment, read-out: Crabgrass, Large plant response rating (0 to 100 scale); for pest or weed control at 500 g/ha: 500 g ai/ha, visual injury, 0 to 100 scale (0 no effect, 100 complete control), approx. 10 d, read-out: Plant response rating, Crabgrass, Large
In short: as §1

[13] = test system: barnyardgrass (Echinochloa crus-galli); assay: Test A postemergence; settings: Echinochloa crus-galli, post-emergence, 240 h, Postemergence; for pest or weed control at 125 g/ha: 125 g ai/ha, visual rating about 10 d after treatment, read-out: Barnyardgrass plant response rating (0 to 100 scale, 0 no effect, 100 complete control); for pest or weed control at 500 g/ha: 500 g ai/ha, visual injury, 0 to 100 scale (0 no effect, 100 complete control), approx. 10 d, read-out: Plant response rating, Barnyardgrass
In short: as §1

[14] = test system: giant foxtail (Setaria faberii); assay: Test A postemergence; settings: Setaria faberi, post-emergence, 240 h, Postemergence; for pest or weed control at 125 g/ha: 125 g ai/ha, visual rating about 10 d after treatment, read-out: Foxtail, Giant plant response rating (0 to 100 scale); for pest or weed control at 500 g/ha: 500 g ai/ha, visual injury, 0 to 100 scale (0 no effect, 100 complete control), approx. 10 d, read-out: Plant response rating, Foxtail, Giant
In short: as §1

[15] = test system: velvetleaf (Abutilon theophrasti); assay: Test A postemergence; settings: Abutilon theophrasti, post-emergence, 240 h, Postemergence; for pest or weed control at 125 g/ha: 125 g ai/ha, visual rating about 10 d after treatment, read-out: Velvetleaf plant response rating (0 to 100 scale); for pest or weed control at 500 g/ha: 500 g ai/ha, visual injury, 0 to 100 scale (0 no effect, 100 complete control), approx. 10 d, read-out: Plant response rating, Velvetleaf
In short: as §1

[16] = test system: morningglory (Ipomoea spp.); assay: Test A postemergence; settings: Ipomoea, post-emergence, 240 h, Postemergence; for pest or weed control at 125 g/ha: 125 g ai/ha, visual rating about 10 d after treatment, read-out: Morningglory plant response rating (0 to 100 scale); for pest or weed control at 500 g/ha: 500 g ai/ha, visual injury, 0 to 100 scale (0 no effect, 100 complete control), approx. 10 d, read-out: Plant response rating, Morningglory
In short: as §1

O=C1NCC(c2c(Cl)cccc2Cl)C1C(=O)Nc1ccccc1F (stereo not shown) [Compound 1361]
0%: pest or weed control at 500 g/ha [1] | pest or weed control at 125 g/ha [1] | Corn plant response rating (crop injury, 0 = no effect, 100 = complete kill) at 500 g/ha (corn (Zea mays) [2]) | Corn plant response rating (crop injury, 0 = no effect, 100 = complete kill) at 125 g/ha (corn (Zea mays) [2]) | plant injury at 500 g/ha [3] | plant injury at 125 g/ha [3] | pest or weed control at 500 g/ha [4] | pest or weed control at 125 g/ha [4] | pest or weed control at 500 g/ha [5] | pest or weed control at 125 g/ha [5] | pest or weed control at 500 g/ha [6] | pest or weed control at 125 g/ha [6] | pest or weed control at 500 g/ha [7] | pest or weed control at 125 g/ha [7] | pest or weed control at 500 g/ha [8] | pest or weed control at 125 g/ha [8] | pest or weed control at 125 g/ha [9] | pest or weed control at 500 g/ha [9] | plant injury at 125 g/ha (corn (Zea mays) [10]) | Corn plant response rating (crop injury, 0 = no effect, 100 = complete kill) at 500 g/ha (corn (Zea mays) [10]) | plant injury at 125 g/ha [11] | plant injury at 500 g/ha [11] | pest or weed control at 125 g/ha [12] | pest or weed control at 500 g/ha [12] | pest or weed control at 125 g/ha [13] | pest or weed control at 500 g/ha [13] | pest or weed control at 125 g/ha [14] | pest or weed control at 500 g/ha [14] | pest or weed control at 125 g/ha [15] | pest or weed control at 500 g/ha [15] | pest or weed control at 125 g/ha [16] | pest or weed control at 500 g/ha [16]

CN1C[C@H](c2ccccc2)[C@](C)(C(=O)Nc2ccccc2F)C1=O (racemic) [Compound 1360]
0%: pest or weed control at 500 g/ha [1] | pest or weed control at 125 g/ha [1] | Corn plant response rating (crop injury, 0 = no effect, 100 = complete kill) at 500 g/ha (corn (Zea mays) [2]) | Corn plant response rating (crop injury, 0 = no effect, 100 = complete kill) at 125 g/ha (corn (Zea mays) [2]) | plant injury at 500 g/ha [3] | plant injury at 125 g/ha [3] | pest or weed control at 500 g/ha [4] | pest or weed control at 125 g/ha [4] | pest or weed control at 500 g/ha [5] | pest or weed control at 125 g/ha [5] | pest or weed control at 500 g/ha [6] | pest or weed control at 125 g/ha [6] | pest or weed control at 500 g/ha [7] | pest or weed control at 125 g/ha [7] | pest or weed control at 500 g/ha [8] | pest or weed control at 125 g/ha [8] | pest or weed control at 125 g/ha [9] | pest or weed control at 500 g/ha [9] | plant injury at 125 g/ha (corn (Zea mays) [10]) | Corn plant response rating (crop injury, 0 = no effect, 100 = complete kill) at 500 g/ha (corn (Zea mays) [10]) | plant injury at 125 g/ha [11] | plant injury at 500 g/ha [11] | pest or weed control at 125 g/ha [12] | pest or weed control at 500 g/ha [12] | pest or weed control at 125 g/ha [13] | pest or weed control at 500 g/ha [13] | pest or weed control at 125 g/ha [14] | pest or weed control at 500 g/ha [14] | pest or weed control at 125 g/ha [15] | pest or weed control at 500 g/ha [15] | pest or weed control at 125 g/ha [16] | pest or weed control at 500 g/ha [16]
